We go through four compounds from ChEMBL document CHEMBL1759835, “Biotransformation of natural compounds. Oxido-reduction of Sch-642305 by Aspergillus ochraceus ATCC 1009” (Bioorg Med Chem Lett, 2011).

As usually defined, the IC50 is the concentration that inhibits the measured activity by half.

One experiment deals with Micrococcus luteus. Description: Antibacterial activity against Micrococcus luteus ATCC 10240 at 100 ug by disk inhibition zone method relative to chloramphenicol. Type of experiment: functional. Set-up: scale not given: the % may be the effect or the level left.
For a further experiment, the system named is Escherichia coli. Briefly: Antibacterial activity against Escherichia coli ATCC 25922 at 100 ug by disk inhibition zone method relative to chloramphenicol. The format is functional. Further details: scale not given: the % may be the effect or the level left.
A further experiment deals with MDA-MB-231. Briefly: Cytotoxicity against human MDA-MB-231 cells assessed as inhibition of cell proliferation after 72 hrs by MTS assay. Type of experiment: functional, cell-based. Conditions: MDA-MB-231, 72 h. On the technique in general: Tetrazolium dyes change colour on reduction, which living cells bring about.
In another experiment the test system is Bacillus subtilis. Briefly: Antibacterial activity against Bacillus subtilis ATCC 6633 at 100 ug by disk inhibition zone method relative to gentamycin. The format is functional. Set-up: scale not given: the % may be the effect or the level left.
Another experiment relates to K562. Briefly: Cytotoxicity against human K562 cells assessed as inhibition of cell proliferation after 72 hrs by MTS assay. Type of experiment: functional, cell-based. As to conditions: K562, 72 h.

`C[C@H]1CCCC[C@@H]2[C@@H](CC(=O)O1)[C@@H](O)CC[C@@H]2O`: the Activity in the experiment on Micrococcus luteus, in the experiment on Escherichia coli and with Bacillus subtilis was 0% throughout. Further, the IC50 in the experiment on MDA-MB-231 came out at 40 nM; with K562 it was 4 nM.

As to `C[C@H]1CCCC[C@H]2C(=O)CC[C@H](O)[C@@H]2CC(=O)O1`, the Activity in the experiment with Micrococcus luteus worked out at 0%; in the experiment on Escherichia coli it was 50%; in the experiment on Bacillus subtilis, 0%. Moreover, the IC50 in the experiment with MDA-MB-231 is 400 nM; in the experiment with K562, 200 nM.

As for `C[C@H]1CCCC[C@H]2C(=O)C[C@H](O)[C@H](O)[C@@H]2CC(=O)O1`, the Activity in the experiment with Micrococcus luteus amounted to 0%; in the experiment with Escherichia coli, 0%; in the experiment on Bacillus subtilis, 62.5%. Besides, the IC50 turned out to be 12 nM with MDA-MB-231 and 20 nM in the experiment with K562.

For `C[C@H]1CCCC[C@H]2C(=O)C=C[C@H](O)[C@@H]2CC(=O)O1`, the Activity is 38% in the experiment on Micrococcus luteus, 0% with Escherichia coli and 100% with Bacillus subtilis. In addition, the IC50 with MDA-MB-231 and in the experiment on K562 was 20 nM in each case.
